Data as given in patent US5446129A, “Peptide or its salt for autoimmune hyperthyroidism containing it” (Ishihara Sangyo Kaisha Ltd., priority 1990, dated 1995).
No end group written: not given here.

Test system: production of cAMP under stimulation by TSAb
Experiment: Test Example 2: cAMP produced under stimulation by TSAb in FRTL5 cells (96-well)
Type: cell-based, rat
Conditions: TSAb positive IgG
Description: Using rat established thyroid cell line FRTL5, the influence of the peptide over the production of cAMP under stimulation by TSAb, was examined in accordance with the method of S. Kosugi et al. (Endocrinology, Vol. 125, No. 1, p 410 (1989)). The method will be described as follows.
Preincubated FRTL5 cells (1.5×10^5 cells/ml) were transferred to a multiplate having 96 wells in an amount of 100 μl per well and incubated in a CO2 incubator for 6 days while changing the medium (having TSH excluded). Then, the medium was removed and the cells were rinsed and subjected to the test. 40 μl of a solution of IgG from TSAb positive serum and 10 μl of a solution containing 0, 15 or 30 μg of the desired peptide were reacted in a test tube at 4° C. for 20 hours. To this reaction solution, 5 μl of a 0.5 mM solution of 3-isobutyl-1-methylxanthine was added, and 50 μl of this reaction solution was added to the previously prepared FRTL5 cells, followed by incubation at 37° C. for two hours.
On the other hand, as control, a test was conducted in the same manner using a normal serum.
With respect to each sample, the quantitative analysis of cAMP produced under stimulation by TSAb was conducted by means of a commercially available cAMP-radioimmunoassay kit (1-VQ12, manufactured by Eiken Kagaku Corporation).

EQEDEIIGFG [Peptide No. 8]
Inhibition rate (15 μg/well peptide): 54%
cAMP (15 μg/well peptide): 3.2 nM
Inhibition rate (30 μg/well peptide): 76%
cAMP (30 μg/well peptide): 1.8 nM
